Measurements published in patent publication US5216124A, “Substituted cyclic tetrapeptides” (G. D. Searle & Co., priority 1991, dated 1993).
Entries after “also recorded” stand apart in the source; their conditions may differ. Structures can show the parent of a compound that is named as a salt. Positions of bridges follow the written chain, without caps; N, C: chain ends. Non-standard residues stand in square brackets, D forms with d. Residues, ends and D or L forms follow the SMILES beside them. Dmt = Cc1cc(O)cc(C)c1C[C@H](N)C(=O)O; dPen = CC(C)(S)[C@@H](N)C(=O)O

Columns and labels:
μ opioid receptors = μ opioid receptors (Rattus norvegicus, UniProt P33535); test: Opiate Binding Assay, displacement of 3[H]-DAMPGO
CD Charles River mice = test: Writhing Assay (PBQ-induced writhing); format: in vivo, mouse; details: for number of mice out of ten in which peptide was active, Intragastric: 10 mg/kg i.g., PBQ i.p. 15 min after dosing; for ED50 value, subcutaneous: s.c.
From the text: The "Writhing Assay" is one of the most widely-used experimental procedures for measuring the analgesic activity of different narcotic and nonnarcotic analgesic agents, and involves the continuous, chemically-induced pain of visceral origin to an animal, such as a mouse or rat. [Gyires et al., Arch. int. Pharmacodyn, 267, 131-140 (1984); C. Vander Wende et al., Fed. Proc., 15, 494 (1956); Koster et al., Fed. Proc., 18, 412 (1959); and Witken et al., J. Pharmacol. Exp. Ther., 133, 400-408 (1961). ] Chemicals which may be used to induce this pain include phenylbenzoquinone (PBQ) and acetic acid. As a result of the chemical irritation to the animal, a characteristic stretching and writhing of the animal (dorsiflexion of the animal's back, extension of its hindlimbs an the strong contraction of its abdominal musculature) will generally occur. […] Drugs which reduce the number of writhes of the animal appear to restore the normal nociceptive threshold of the animal.
This assay was conducted generally in the manner described by R. I. Taber, "Predictive Value of Analgesic Assays in Mice and Rats,"Advances in Biochemical Psychopharmacology, 8, 191 (1974). The Methyl Ester Tetrapeptide and Test Tetrapeptides Nos. 1, 3, 4, 5, 6, 7, 8 and 9 were tested in this assay.
Two hundred CD Charles River mice, weighing 20 to 30 grams were used in this assay.
Twenty-five minutes after subcutaneous administration, and fifteen minutes after intragastric administration, to the mice of 10 mg per kilogram of body weight of either a Test Tetrapeptide or the Methyl Ester Tetrapeptide, […] of body weight of a 0.025% w/v solution of PBQ was injected intraperitoneally into each mouse. Some mice were given saline in place of a Test Tetrapeptide or the Methyl Ester Tetrapeptide, and were used as a control group.
Five minutes later, each mouse was individually placed into a glass beaker for observation, and the number of writhes occurring during the following ten-minute period was counted.
A tetrapeptide compound was considered to be "active" (to have produced analgesia in a mouse) if, in accordance with the conditions set forth above, and under the test criteria employed for this assay, after the administration of 10 mg per kilogram of body weight of the tetrapeptide to the mouse, the number of writhes elicited by a mouse injected with PBQ was equal to, or less than, one-half the median number of writhes recorded for the saline-treated control group of mice that day, as described by R. I. Taber, supra.
The standard initial screening dose of a compound employed in this assay was 10 mg per kilogram (mpk) of body weight for both routes of administration. If this initial screening dose of the tetrapeptide produced analgesia in seven of ten mice, then the effect of additional doses of the tetrapeptide on the writhing response was evaluated, and then the ED50 value (that dose of a Test Tetrapeptide or the Methyl Ester Tetrapeptide which produced analgesia in 50% of the mice to which the tetrapeptide was administered) was generally calculated. A maximum likelihood function was used to determine the ED50 value. (The slopes of the dose-response curves for all tetrapeptides analyzed were compared as described by Tallarida and Murray, Manual of Pharmacologic Calculations, Page 11 (Springer Verlag, N.Y., 1981)).

δ opioid receptors = δ opioid receptors (Rattus norvegicus, UniProt P33533); test: Opiate Binding Assay, displacement of 3[H]-DSLET
[1] = test system: Charles River albino mice; test: Hot Plate Assay (Hind Paw Lick Assay); format: in vivo, mouse
From the text: (§1) The "Tail Flick Assay" and the "Hot Plate Assay" (also known as the "Hind Paw Lick Assay") use thermal pain of transient duration, and are tests in which the pain threshold of the mice or rats being analyzed has not been altered. They are useful for evaluating the ability of a compound or drug to increase the animal's pain threshold (i.e. prolong response latencies), rather than to restore normal thresholds.
(§2) The heat-induced response to the Tail Flick Assay is a reflex reaction mediated at the level of the spinal cord. The heat-induced response to the Hot Plate Assay, however, is a more complex behavior requiring integration at higher centers in the brain. […]
(§3) Tail flick response latencies (defined as the time that elapsed between the onset of a high intensity beam of light and the reflex removal of the mouse or rat's tail) and hot plate response latencies (defined as the time that elapsed between the placement of a mouse or rat on a 55 degrees Celsius surface and a lick of the hind paw) were separately, but consecutively, measured before (baseline) and again at fixed intervals after subcutaneous or intracerebroventricular administration of one of the tetrapeptide compounds of the invention, the Methyl Ester Tetrapeptide, the Mosberg Tetrapeptide, or after the administration of saline (controls). […]

[2] = test system: Charles River albino mice; test: Tail Flick Assay; format: in vivo, mouse; details: listed as Test Tetrapeptide No. 1, monohydrochloride
From the text: as §1, §2, §3

Chain of δ opioid receptors (P33533 whole entry): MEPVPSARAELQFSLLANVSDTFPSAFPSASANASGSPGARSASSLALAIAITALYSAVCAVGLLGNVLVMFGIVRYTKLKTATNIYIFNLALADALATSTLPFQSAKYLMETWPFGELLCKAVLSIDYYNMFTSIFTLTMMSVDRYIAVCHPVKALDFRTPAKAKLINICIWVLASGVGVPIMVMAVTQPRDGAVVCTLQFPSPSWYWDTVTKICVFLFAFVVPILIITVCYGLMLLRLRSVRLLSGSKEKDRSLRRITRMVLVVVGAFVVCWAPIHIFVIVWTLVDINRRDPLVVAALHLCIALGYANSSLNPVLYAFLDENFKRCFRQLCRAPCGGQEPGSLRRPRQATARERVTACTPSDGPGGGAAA
Chain of μ opioid receptors (P33535 whole entry): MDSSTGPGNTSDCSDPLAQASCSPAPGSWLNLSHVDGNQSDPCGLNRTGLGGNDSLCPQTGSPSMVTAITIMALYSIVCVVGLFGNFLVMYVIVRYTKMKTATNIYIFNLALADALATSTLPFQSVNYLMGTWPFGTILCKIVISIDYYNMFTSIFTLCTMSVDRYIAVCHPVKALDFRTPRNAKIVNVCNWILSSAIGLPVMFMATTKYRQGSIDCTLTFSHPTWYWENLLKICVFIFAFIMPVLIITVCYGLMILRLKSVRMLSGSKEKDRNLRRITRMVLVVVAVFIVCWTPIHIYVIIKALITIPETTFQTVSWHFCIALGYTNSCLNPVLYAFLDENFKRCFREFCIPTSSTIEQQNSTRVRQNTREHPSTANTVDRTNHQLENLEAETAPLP

| Molecule | Percent Displacement (μ) (μ opioid receptors; at 100 nM, 3[H]-DAMPGO) | number of mice out of ten in which peptide was active, Intragastric (CD Charles River mice) | number of mice out of ten in which peptide was active, Subcutaneous (CD Charles River mice; 10 mg/kg s.c., PBQ i.p. 25 min after dosing) | Percent Displacement (δ) (δ opioid receptors; at 100 nM, 3[H]-DSLET) | IC50 (μ opioid receptors) | IC50 (δ opioid receptors) | ED50 value, subcutaneous (CD Charles River mice) | ED50 value, subcutaneous (CD Charles River mice; PBQ i.p. 25 min after dosing) | activity (increase in hot plate latency), Intracerebroventricular ([1]; i.c.v., at 1.0 μg/kg) | activity (increase in hot plate latency), Subcutaneous ([1]; s.c., at 100 mpk, listed as Test Tetrapeptide No. 1, monohydrochloride, 100 mg/kg) | activity (increase in tail flick latency), Intracerebroventricular ([2]; i.c.v., at 1 μg/kg) | activity (increase in tail flick latency), Subcutaneous ([2]; s.c., at 100 mpk, 100 mg/kg) | Mean IC50 Value μ/δ Ratio (δ opioid receptors; ratio of mean IC50 μ to δ, above 1.0 = more specific for δ) |
| --- | --- | --- | --- | --- | --- | --- | --- | --- | --- | --- | --- | --- | --- |
| 2,6-dimethyl-L-tyrosyl-D-cysteinyl-4-chloro-L-phenylalanyl-3-mercapto-D-valine, cyclic (2→4)-disulfide, methyl ester, monohydrochloride [Example 32] | 18% | 4/10 | 4/10 | 44% | – | – | – | – | – | – | – | – | – |
| Cc1cc(O)cc(C)c1C[C@H](N)C(=O)N[C@@H]1CSSC(C)(C)[C@H](C(=O)O)NC(=O)[C@H](Cc2ccccc2)NC1=O [Example 4, 2,6-dimethyl-L-tyrosyl-D-cysteinyl-L-phenylalanyl-3-mercapto-D-valine, cyclic (2→4)-disulfide] (H-[Dmt][dC]F[dPen]-OH; disulfide 2-4) | – | – | – | – | 5.4 nM | 0.4 nM | – | – | – | – | – | – | – |
| COC(=O)[C@@H]1NC(=O)[C@H](Cc2ccccc2)NC(=O)[C@H](NC(=O)[C@@H](N)Cc2c(C)cc(O)cc2C)CSSC1(C)C [Example 25, 2,6-dimethyl-L-tyrosyl-D-cysteinyl-L-phenylalanyl-3-mercapto-D-valine, cyclic (2→4)-disulfide. methyl ester, monohydrochloride] (H-[Dmt][dC]F[dPen]-OMe; disulfide 2-4) | – | 3/10 | – | – | – | – | 4.1 mg per kg of body weight | 4.1 mpk | Active | Active; also recorded: showed activity | active | Active; also recorded: showed activity | 1.2 |
